Results reported in article PMC7838199, “Color-tunable bioluminescence imaging portfolio for cell imaging” (Scientific Reports, 2021).

These compounds were tested against T1, NanoLuc (Oplophorus gracilirostris, UniProt Q9GV45, A31E/Q38R/Q45L/L54V/A60N/K70R/V71I/A81I/F95D/L99Q/M102K/I117V/P142E/Q151K/Y165I/N193R) (assay: bioluminescence spectrum in transfected-cell lysate). Conditions: 50 mM HEPES, pH 7.2; MDA-MB-231 lysate.
T1 construct: pcDNA3.1(+) in MDA-MB-231 cells, lysate
Assay type: cell-based

T1 sequence (Q9GV45 28-196 with the stated changes): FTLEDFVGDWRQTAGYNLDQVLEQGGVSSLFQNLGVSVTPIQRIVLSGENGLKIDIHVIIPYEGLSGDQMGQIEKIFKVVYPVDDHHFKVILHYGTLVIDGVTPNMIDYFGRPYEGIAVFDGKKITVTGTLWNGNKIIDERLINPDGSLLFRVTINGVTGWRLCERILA

Row | SMILES | bioluminescence spectrum in transfected-cell lysate
1 | O=c1c(Cc2ccccc2)nc2c(-c3ccccc3)[nH]c(-c3ccccc3)cn1-2 [3d] | 3d selectively emits significant BL with NanoLuc

Each compound was assayed on T2, Artificial Luciferase 16 (ALuc16) (assay: bioluminescence, Lineweaver-Burk). Conditions: 50 mM HEPES, pH 7.2; 0.1 µM luciferase.
T2 construct: designed artificial luciferase; recombinant for the kinetics; cDNA in pcDNA3.1(+) for cell work
Assay type: biochemical, synthetic construct
Text: bioluminescence, Lineweaver-Burk on Artificial Luciferase 16 (ALuc16)

Row | SMILES | Km [µM]
2 | CN(C)c1ccc(/C=C/c2cn3c(=O)c(Cc4ccc(O)cc4)nc-3c(Cc3ccccc3)[nH]2)cc1 [1b] | 7.9
3 | CN(C)c1ccc(/C=C/C=C/c2cn3c(=O)c(Cc4ccc(O)cc4)nc-3c(Cc3ccccc3)[nH]2)cc1 [1c] | 26.1
4 | CN(C)c1ccc(/C=C/C=C/C=C/c2cn3c(=O)c(Cc4ccc(O)cc4)nc-3c(Cc3ccccc3)[nH]2)cc1 [1d] | 70.6
5 | O=c1c(Cc2ccccc2)nc2c(-c3ccccc3)[nH]c(-c3ccccc3)cn1-2 [3d] | 120
6 | Oc1ccc(Cc2nc3c(Cc4ccccc4)nc(-c4ccc(O)cc4)cn3c2O)cc1 [CTZ, coelenterazine] | 38.5

Continued, values first:

Row | Km [µM] | SMILES
7 | 157 | CN(C)c1ccc(/C=C/C=C/c2cn3c(=O)c(Cc4ccccc4)nc-3c(-c3ccccc3)[nH]2)cc1 [2c]
8 | 86.5 | CN(C)c1ccc(/C=C/C=C/C=C/c2cn3c(=O)c(Cc4ccccc4)nc-3c(-c3ccccc3)[nH]2)cc1 [2d]
9 | 68.3 | O=c1c(Cc2ccccc2)nc2c(-c3ccccc3)[nH]c(-c3ccncc3)cn1-2 [3c]
